Test results taken from patent publication US10000471B2, “Pyrazole P38 map kinase inhibitors” (Respivert Limited, priority 2010, dated 2018).

Key:
[1] = system: Differentiated U937 cells; assay: Cell viability MTT assay; format: cell-based, human; settings: negative = apparent increase in viability; for MTT Assay (Viability) 4 h d-U937, percentage loss of cell viability: 4 hr in 5% FCS; for MTT Assay (Viability) 24 h d-U937, percentage loss of cell viability: 24 h in 10% FCS
In short: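 Differentiated U937 cells pre-incubated with compound either 4 hr in 5% FCS or 24 h in 10% FCS, then 1 hr MTT. Formazan dissolved in DMSO, absorbance at 550 nm. Percentage viability loss relative to 0.5% DMSO vehicle; apparent increases appear as negative percentages.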

[2] = system: IL-8 release in d-U937 cells; assay: LPS-induced IL-8 release in d-U937 cells; format: cell-based, human; settings: Homo sapiens, dU937
In short: (§1)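 PMA-differentiated (100 ng/ml, 48–72 hr) U937 macrophage-type cells pre-incubated 2 hr with compound, then stimulated 4 hr with 0.1 μg/mL E. coli O111:B4 LPS; supernatant TNFα and IL-8 measured by sandwich ELISA. TNFα inhibition expressed relative to 10 μg/mL BIRB796, giving REC50; IL-8 inhibition versus vehicle, giving IC50.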

[3] = target: T1, p38 MAPKγ (MAPK12) (Homo sapiens, UniProt P53778); assay: Enzyme inhibition assay (FRET, Z-LYTE), p38 MAPKγ; format: biochemical; settings: read-out: Enzyme Inhibition IC50 p38γ
T1 construct: purchased Invitrogen
T1 sequence (P53778 1-367): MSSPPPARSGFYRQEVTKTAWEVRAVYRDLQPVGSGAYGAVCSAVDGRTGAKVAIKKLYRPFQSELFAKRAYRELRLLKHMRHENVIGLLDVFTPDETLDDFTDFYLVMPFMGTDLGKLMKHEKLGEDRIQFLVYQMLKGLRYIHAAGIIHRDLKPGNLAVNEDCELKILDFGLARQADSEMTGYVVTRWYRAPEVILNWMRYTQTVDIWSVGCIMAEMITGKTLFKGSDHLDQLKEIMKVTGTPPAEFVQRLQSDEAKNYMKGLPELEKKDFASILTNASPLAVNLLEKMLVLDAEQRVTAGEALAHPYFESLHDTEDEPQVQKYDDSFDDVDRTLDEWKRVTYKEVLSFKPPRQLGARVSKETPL
In short: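 Recombinant phosphorylated p38 MAPKγ preincubated 2 h at RT with compound in HEPES buffer, then 2 μM FRET peptide and 100 μM ATP added for 1 h; protease development 1 h. Coumarin/fluorescein emission ratio gave phosphorylation; IC50 from concentration-response versus uninhibited control.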

[4] = target: T2, p38 MAPKα isoform (MAPK14) (Homo sapiens, UniProt Q16539); assay: Enzyme inhibition assay (FRET, Z-LYTE), p38 MAPKα via MAPKAP-K2 activation; format: biochemical; settings: read-out: Enzyme Inhibition IC50 p38α
T2 construct: purchased Invitrogen
T2 sequence (Q16539 whole entry, canonical isoform): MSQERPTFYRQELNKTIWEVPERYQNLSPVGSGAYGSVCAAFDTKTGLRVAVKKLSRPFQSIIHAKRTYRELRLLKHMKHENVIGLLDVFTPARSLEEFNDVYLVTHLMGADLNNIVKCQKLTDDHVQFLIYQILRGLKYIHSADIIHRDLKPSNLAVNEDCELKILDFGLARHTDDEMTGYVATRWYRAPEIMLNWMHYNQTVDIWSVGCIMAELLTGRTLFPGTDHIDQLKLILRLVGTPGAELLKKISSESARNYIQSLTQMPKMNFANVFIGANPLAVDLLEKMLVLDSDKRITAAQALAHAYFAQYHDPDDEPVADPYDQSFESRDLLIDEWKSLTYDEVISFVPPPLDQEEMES
In short: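 Recombinant p38 MAPKα was preincubated with compound for 2 h at RT. Its activity was measured indirectly through activation/phosphorylation of downstream MAPKAP-K2, with a Z-LYTE FRET peptide read-out (coumarin/fluorescein ratio) after a 1 h development step. IC50 came from concentration-response curves of percent inhibition versus an uninhibited control.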

[5] = system: TNFα release in THP-1 cells; assay: LPS-induced TNFα release in THP-1 cells; format: cell-based, human; settings: Homo sapiens
In short: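 Human monocytic THP-1 cells stimulated with 3 μg/mL E. coli LPS for 4 hr; supernatant TNFα measured by sandwich ELISA. Inhibition at each concentration versus vehicle control, IC50 from concentration-response curve.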

[6] = system: ICAM-1 induction in BEAS2B cells; assay: Poly I:C-induced ICAM-1 induction in BEAS2B cells; format: cell-based, human; settings: Homo sapiens, BEAS-2B, read-out: PolyIC/ICAM1 IC50 BEAS2B
In short: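 Human bronchial epithelial BEAS2B cells were pre-incubated with compound for 2 hr, then transfected with 1 μg/mL poly I:C. After 18 hr, surface ICAM-1 was measured by cell-based ELISA (OD450-655) and normalized to crystal violet cell counts (OD595). IC50 came from inhibition versus vehicle across the concentration-response curve.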

[7] = system: TNFα release in d-U937 cells; assay: LPS-induced TNFα release in d-U937 cells; format: cell-based, human; settings: Homo sapiens, dU937, relative to 10 μg/mL BIRB796, read-out: LPS/TNFα REC50 d-U937
In short: as §1

| IC50 [2] | IC50 [3] | IC50 [4] | IC50 [5] | EC50 [7] | Structure (SMILES) | MTT Assay (Viability) 4 h d-U937, percentage loss of cell viability [1] | MTT Assay (Viability) 24 h d-U937, percentage loss of cell viability [1] | IC50 [6] |
| --- | --- | --- | --- | --- | --- | --- | --- | --- |
| 2.8 nM | 134 nM | 24.7 nM | 0.6 nM | 0.5 nM | COCC(=O)Nc1cc(Oc2ccc(NC(=O)Nc3cc(C(C)(C)C)nn3-c3ccc(C)cc3)c(Cl)c2F)ccn1 [Example 35, N-(4-(4-(3-(3-tert-butyl-1-p-tolyl-1H-pyrazol-5-yl)ureido)-3-chloro-2-fluorophenoxy)pyridin-2-yl)-2-methoxyacetamide] | −0.2% | 73.1% | 1.5 nM |
| 3.8 nM | 122 nM | 37.7 nM | 2.7 nM | 2 nM | COc1ccc(-n2nc(C(C)(C)C)cc2NC(=O)Nc2ccc(Oc3ccnc(NC(=O)NC4CC4)c3)c(Cl)c2Cl)cc1 [Example 65, 1-(4-(4-(3-(3-tert-butyl-1-(4-methoxyphenyl)-1H-pyrazol-5-yl)ureido)-2,3-dichlorophenoxy)pyridin-2-yl)-3-cyclopropylurea] | −4.7% | 20.2% | 17.5 nM |
| 1.1 nM | 28 nM | 14.6 nM | 0.7 nM | 1.3 nM | CNCC(=O)Nc1cc(Oc2ccc(NC(=O)Nc3cc(C(C)(C)C)nn3-c3ccc(OC)cc3)c(Cl)c2Cl)ccn1 [Example 42, N-(4-(4-(3-(3-tert-butyl-1-(4-methoxyphenyl)-1H-pyrazol-5-yl)ureido)-2,3-dichlorophenoxy)pyridin-2-yl)-2-(methylamino)acetamide] | −4.4% | 67.9% | 3.1 nM |
| 2.2 nM | 36 nM | 16.5 nM | 1.2 nM | 0.7 nM | COCC(=O)Nc1cc(Oc2ccc(NC(=O)Nc3cc(C(C)(C)C)nn3-c3ccc(CO)cc3)c(Cl)c2Cl)ccn1 [Example 49, N-(4-(4-(3-(3-tert-butyl-1-(4-hydroxymethylphenyl)-1H-pyrazol-5-yl)ureido)-2,3-dichlorophenoxy)pyridin-2-yl)-2-methoxyacetamide] | −4.8% | 92.2% | 1.5 nM |
| 266 nM | 2860 nM | 29 nM | 97.2 nM | 171 nM | COCC(=O)Nc1cc(CSc2ccc(NC(=O)Nc3cc(C(C)(C)C)nn3-c3ccc(OC)cc3)c(Cl)c2Cl)ccn1 [Example 26, N-(4-((4-(3-(3-tert-Butyl-1-(4-methoxyphenyl)-1H-pyrazol-5-yl)ureido)-2,3-dichlorophenylthio)methyl)pyridin-2-yl)-2-methoxyacetamide] | 10.5% | −4.3% | > 156 nM |

Further lines, the molecule ahead of its results:

| Structure (SMILES) | IC50 [2] | IC50 [3] | IC50 [4] | IC50 [5] | EC50 [7] | MTT Assay (Viability) 4 h d-U937, percentage loss of cell viability [1] | MTT Assay (Viability) 24 h d-U937, percentage loss of cell viability [1] | IC50 [6] |
| --- | --- | --- | --- | --- | --- | --- | --- | --- |
| CN(C)CCCC(=O)Nc1cc(Oc2ccc(NC(=O)Nc3cc(C(C)(C)C)nn3-c3ccc(CO)cc3)c(Cl)c2Cl)ncn1 [Example 22] | 33.8 nM | 20.6 nM | 7.6 nM | 1.1 nM | 1.5 nM | −20.9% | 85.2% | 4.9 nM |
| COc1ccc(-n2nc(C(C)(C)C)cc2NC(=O)Nc2ccc(Oc3ccnc(NC(=O)N4CCC(N(C)C)CC4)c3)c(Cl)c2Cl)cc1 [Example 87, N-(4-(4-(3-(3-tert-butyl-1-(4-methoxyphenyl)-1H-pyrazol-5-yl)ureido)-2,3-dichlorophenoxy)pyridin-2-yl)-4-(dimethylamino)piperidine-1-carboxamide] | 2.1 nM | 16.9 nM | 14.5 nM | 1 nM | 1.7 nM | 7.1% | 39.3% | 1 nM |
| CC(C)(C)c1cc(NC(=O)Nc2ccc(Oc3ccnc(NC(=O)N4CCCC4)c3)c(Cl)c2Cl)n(-c2ccc(CO)cc2)n1 [Example 77, N-(4-(4-(3-(3-tert-butyl-1-(4-hydroxymethylphenyl)-1H-pyrazol-5-yl)ureido)-2,3-dichlorophenoxy)pyridin-2-yl)pyrrolidine-1-carboxamide] | 0.4 nM | 24.3 nM | 18.4 nM | 0.4 nM | 0.2 nM | −8.8% | 53.3% | 2.5 nM |
| CN(C)CCNC(=O)Nc1cc(Oc2ccc(NC(=O)Nc3cc(C(C)(C)C)nn3-c3ccc(CO)cc3)c(Cl)c2Cl)ncn1 [Example 101, 1-(3-tert-butyl-1-(4-hydroxymethylphenyl)-1H-pyrazol-5-yl)-3-(2,3-dichloro-4-(6-(3-(2-(dimethylamino)ethyl)ureido)pyrimidin-4-yloxy)phenyl)urea] | 3.1 nM | 57.7 nM | 5.6 nM | 10.4 nM | 1.1 nM | 2.8% | 73.9% | 5.2 nM |
| COCC(=O)Nc1cc(Oc2ccc(NC(=O)Nc3cc(C(C)(C)C)nn3-c3ccc(C)cc3)c(C(F)(F)F)c2)ccn1 [Example 3, N-(4-(4-(3-(3-tert-Butyl-1-p-tolyl-1H-pyrazol-5-yl)ureido)-3-(trifluoromethyl)phenoxy)pyridin-2-yl)-2-methoxyacetamide] | 41.2 nM | 175 nM | 5.1 nM | 1 nM | 1.1 nM | 3.4% | 22.9% | 24.4 nM |
| CN(C)[C@H]1CCN(C(=O)Nc2cc(Oc3ccc(NC(=O)Nc4cc(C(C)(C)C)nn4-c4ccc(CO)cc4)c(Cl)c3Cl)ccn2)C1 [Example 83, (S)-N-(4-(4-(3-(3-tert-butyl-1-(4-hydroxymethylphenyl)-1H-pyrazol-5-yl)ureido)-2,3-dichlorophenoxy)pyridin-2-yl)-3-(dimethyl-amino)pyrrolidine-1-carboxamide] | 34 nM | 19.8 nM | 6.7 nM | 0.7 nM | 1.7 nM | −9.9% | 34.3% | 2.4 nM |
| CNC(=O)Nc1nccc(Oc2ccc(NC(=O)Nc3cc(C(C)(C)C)nn3-c3ccc(OC)cc3)c(Cl)c2Cl)n1 [Example 98, 1-(3-tert-butyl-1-(4-methoxyphenyl)-1H-pyrazol-5-yl)-3-(2,3-dichloro-4-(2-(3-methylureido)pyrimidin-4-yloxy)phenyl) urea] | 2.7 nM | 101 nM | 32.5 nM | 1.4 nM | 1.9 nM | −25.9% | −29.3% | 4.1 nM |
| COCC(=O)Nc1cc(Oc2ccc(NC(=O)Nc3cc(C(C)(C)C)nn3-c3ccc(C)cc3)c(Br)c2)ccn1 [Example 32, N-(4-(3-bromo-4-(3-(3-tert-butyl-1-p-tolyl-1H-pyrazol-5-yl)ureido)phenoxy)pyridin-2-yl)-2-methoxyacetamide] | 29.1 nM | 148 nM | 42.9 nM | 1.3 nM | 0.6 nM | 17.2% | 65.3% | 6.5 nM |
